Test results taken from patent publication US20230321187A1, “OCTOPUS-DERIVED PEPTIDE OCTOPROMYCIN HAVING ANTIBACTERIAL AND ANTI-BIOFILM ACTIVITY AGAINST ACINETOBACTER BAUMANNII” (priority 2020, published 2023).
Entries after “also recorded” stand apart in the source; their conditions may differ. Where no end group is shown, it is not given here.

How the values were obtained:
A. baumannii [1] = assay: H2DCF-DA assay of ROS production; format: cell-based, Acinetobacter baumannii; details: MIC (50 μg/mL) and MBC (200 μg/mL), 10 hours
Method: To further examine a mode of action of octopromycin related to endogenous ROS production in A. baumannii by octopromycin, H2DCF-DA assay was performed. The accumulation of ROS in A. baumannii was quantified using fluorescent probe carboxy-H2DCF-DA (Invitrogen, USA). An A. baumannii culture solution (OD-0.25, 5×10^6 CFU/mL) was treated with octopromycin (MIC; 50 μg/mL and MBC; 200 μg/mL) and cultured at 25° C. for 10 hours, and then, cells were harvested by centrifugation at 5000 rpm for 2 minutes. To detect ROS levels, the cells were stained with H2DCF-DA (100 μg/mL) and cultured at room temperature (24±1° C.) for 30 minutes and then centrifuged at 5000 rpm for 2 minutes. The cells were washed with ×1 PBS and dichloro-fluorescein (DCF) fluorescence was measured using CLSM (LSMS Live Configuration Variotwo VRGB, Zeiss, Germany) at an excitation wavelength of 488 nm and an emission wavelength of 535 nm.

A. baumannii [2] = assay: FE-SEM analysis of morphological and ultrastructural changes; format: cell-based, Acinetobacter baumannii; details: MIC (50 μg/mL) and MBC (200 μg/mL), 9 hours
Method: To understand a mode of action of octopromycin, FE-SEM analysis was performed at MIC and MBC concentrations to estimate the ultrastructure changes of A. baumannii.
First, A. baumannii cells were treated with octopromycin at MIC (50 μg/mL) and MBC (200 μg/mL) for 9 hours. As a negative control group, an untreated A. baumannii culture solution was used, and all other steps were performed identically for the sample. Subsequently, the culture solution was centrifuged at 3500 rpm […] and the pellet was washed with phosphate saline buffer PBS and prefixed with 2.5% glutaraldehyde for 30 minutes. Then, the prefixed cells were washed with PBS and continuously dehydrated using ethanol (30, 50, 70, 80, 90, and 100%). The fixed cells were dried and coated with platinum using an ion sputter (E-1030, Hitachi, Japan).

HEK293T cells = assay: MTT cytotoxicity assay in HEK293 cells; format: cell-based, human
Method: (§1) To measure the cytotoxicity of octopromycin on HEK293T (American Type Culture Collection ATCC-11268) and Raw 264.7 cells, the cells were treated with octopromycin and cell viability was evaluated. The cells were harvested, counted and seeded at a density of […] per well in a 96-well plate and cultured for 24 hours at 37° C. and 5% CO2. The cells were treated with different concentrations of octopromycin (0 to 800 μg/mL) and cultured for 24 hours. After culturing, the culture medium was replaced with a fresh medium, and 10 μL of MTT (5 mg/mL) was added to each well and incubated in a CO2 incubator for 4 hours. The formed formazan crystals were dissolved in 50 μL of DMSO and absorbance was measured at 570 nm using a microplate reader (Bio-Rad Laboratories, Inc, USA). Cells treated with the medium (control) were considered as 100% viability (control group), and current viability was normalized and calculated for the untreated control group.

[3] = MTT cytotoxicity assay in HEK293 cells; format: cell-based, human; details: HEK293T cells
Method: as §1

Raw 264.7 cells = assay: MTT cytotoxicity assay in Raw 264.7 cells; format: cell-based
Method: as §1

[4] = MTT cytotoxicity assay in Raw 264.7 cells; format: cell-based; details: mouse, Raw 264.7 cells
Method: as §1

A. baumannii biofilm = assay: Eradication of already formed biofilm (crystal violet staining); format: cell-based, Acinetobacter baumannii; details: 24 hours after treatment
Method: Next, the effect of octopromycin on biofilm eradication in A. baumannii was confirmed. To measure the eradication effect of the already formed biofilm, 100 μL of A. baumannii (5×10^5 CFU/mL) was cultured in TSB for 24 hours. The culture medium was removed and the wells were carefully washed with PBS to eradicate planktonic bacteria. The wells were added with octopromycin (50 μg/mL (MIC) and 200 μg/mL (MBC)) and further cultured for 24 hours. The biofilm was stained with crystal violet for 30 minutes, washed three times with PBS, and dissolved in 95% ethanol, and the absorbance was measured at 495 nm using a microplate reader (Bio-Rad, USA).

A. baumannii [5] = format: cell-based; details: Acinetobacter baumannii, 24 h, 200 μg/mL
Method: A. baumannii was cultured in TSB (OD-0.25, 2.5 x 10^6 CFU/mL) and treated with octopromycin at various concentrations (0, 25, 50, 75, 100, 150, and 200 μg/mL). After culturing for 24 hours in a shaking incubator at 180 rpm at 25° C., A. baumannii was centrifuged at 3500 rpm for 10 minutes, and the cells were washed with PBS. For cell viability assay, A. baumannii cells reacted with 20 μL of an MTT reagent (Sigma Aldrich, USA) for 30 minutes, and the samples were resuspended in dimethylsulfoxide (Sigma Aldrich, USA). The cell viability was measured based on OD at 570 nm using a microplate reader (Bio-Rad, Saint Louis, USA).

For “RRLIRTDTGPIIYDYFKDQLLKKGMVILRESMKNLKGM [octopromycin]”, the ROS level (A. baumannii [1]) was “increased in a concentration-dependent manner; also recorded: increased the production of reactive oxygen species”, the “morphological and ultrastructural changes (FE-SEM)” value (A. baumannii [2]) was “severe membrane destruction; also recorded: caused ultrastructural cell wall deformation” and the cell viability (HEK293T cells; HEK293, >400 μg/mL) was “significantly reduced”. The toxic effect (HEK293T cells; HEK293, MBC level (200 μg/mL)) was “no toxic effect”, the viability at 24 h ([3]; human embryonic kidney 293T, concentration not given, read-out: cells alive) was at least 85% and the viability at 24 h, 400 µg/mL ([3]; human, HEK293, 400 μg/mL, 24 hours, read-out: cell viability) was 85%. For the same sequence, the cell viability (Raw 264.7 cells; Raw 264.7, >400 μg/mL) was “significantly reduced”, the toxic effect (Raw 264.7 cells; Raw 264.7, MBC level (200 μg/mL)) was “no toxic effect” and the viability at 24 h, 400 µg/mL ([4]; Raw 264.7, 400 μg/mL, 24 hours, read-out: cell viability) was 80%. The viability at 24 h ([4]; Raw 264.7, concentration not stated, read-out: cells alive) was at least 85%, the “reduction in biofilm (eradication)” value (A. baumannii biofilm; MBC (200 μg/mL)) was 64.2% and the “reduction in biofilm (eradication)” value (A. baumannii biofilm; MIC (50 μg/mL)) was 64.0%. For the same sequence, the “cell viability of A. baumannii” value (A. baumannii [5]) was 1.54%.
